Laboratory results from publication PMC10997755, “Discovery of a small-molecule inhibitor that traps Polθ on DNA and synergizes with PARP inhibitors” (Nature Communications, 2024).
Where “and” joins values, the source holds several entries; their conditions need not be identical. Equal values may be shown once. Entries after “also recorded” stand apart in the source; their conditions may differ.

Columns and labels:
Assay type in all cases: biochemical
Polθ-pol = target: T1, Polθ-pol (Homo sapiens, UniProt O75417); test: MMEJ in vitro assay
T1 construct: purified recombinant human Polθ-pol (comprising amino acid residues 1792–2590); made in house
T1 sequence (O75417 1792-2590): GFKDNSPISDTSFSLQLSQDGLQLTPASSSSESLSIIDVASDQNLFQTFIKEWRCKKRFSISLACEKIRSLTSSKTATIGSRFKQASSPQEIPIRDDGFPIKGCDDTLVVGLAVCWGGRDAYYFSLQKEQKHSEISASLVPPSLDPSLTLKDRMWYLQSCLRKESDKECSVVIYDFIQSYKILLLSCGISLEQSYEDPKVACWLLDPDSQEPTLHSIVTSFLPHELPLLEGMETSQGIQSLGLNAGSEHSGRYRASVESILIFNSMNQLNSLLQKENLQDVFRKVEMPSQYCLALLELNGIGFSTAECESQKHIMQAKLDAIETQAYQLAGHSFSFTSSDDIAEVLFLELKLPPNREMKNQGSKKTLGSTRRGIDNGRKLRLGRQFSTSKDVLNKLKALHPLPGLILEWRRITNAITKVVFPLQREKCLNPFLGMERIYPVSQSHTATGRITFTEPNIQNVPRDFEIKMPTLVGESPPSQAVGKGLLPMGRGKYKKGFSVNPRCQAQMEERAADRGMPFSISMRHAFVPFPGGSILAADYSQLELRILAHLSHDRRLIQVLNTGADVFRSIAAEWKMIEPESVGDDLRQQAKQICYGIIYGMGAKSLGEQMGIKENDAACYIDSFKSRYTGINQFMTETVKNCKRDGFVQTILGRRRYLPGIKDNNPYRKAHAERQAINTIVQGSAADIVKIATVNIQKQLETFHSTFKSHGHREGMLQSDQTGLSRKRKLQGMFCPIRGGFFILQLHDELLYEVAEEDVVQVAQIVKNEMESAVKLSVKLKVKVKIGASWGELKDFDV
Procedure: For the MMEJ in vitro assay in the presence of RTx-161, 10 nM Polθ-pol was first mixed with DMSO (3% final concentration) or RTx-161 at indicated final concentrations 4–500 nM in reaction buffer (25 mM Tris-HCl pH 7.5, 10 mM MgCl2, 10% glycerol, 0.1 mg/mL BSA, 0,01% IGEPAL CA-630, 1 mM DTT) followed by incubation for 5 min at room temperature. MMEJ reactions were started by the addition of 50 μM dNTP and 25 nM 5’-^32P radiolabeled pssDNA (RP343/^32P-RP344), incubated for 15 min at 37 °C, stopped by the addition of denaturing formamide loading buffer with 50 mM EDTA, resolved in denaturing 20% PAGE and analyzed using Typhoon PhosphorImager (GE Amersham). Quantification was performed using ImageQuant TL software. For the MMEJ in vitro assay in the presence of MC160385, 0.2–10 μM MC160385, 10 nM Polθ-pol, 60 nM 5’-^32P radiolabeled pssDNA and 100 μM dNTPs were used. The reaction was performed as above and stopped by the Proteinase K treatment in 50 mM EDTA and 0.5% SDS. The products were resolved in native 12% PAGE at room temp and analyzed as above.

Polθ-pol:DNA/DNA complex = target: T2, Polθ-pol:DNA/DNA complex (Homo sapiens, UniProt O75417); test: EcoRI endonuclease protection assay; conditions: for EcoRI cleavage %, ave / EcoRI cleavage %, replicates #1-#3: Eco+pol+ddC+RTx compound; for cleavage normalized to 100%, i: 14 nt i; for cleavage normalized to 100%, i+1: 15 nt i+1; for i (%) (14 nt), replicates #1-#3 / i (%), normalized to 100%, ave(%) / i+1 (%) (15 nt), replicates #1-#3 / i+1 (%) normalized to 100%, ave(%): pol+ddC+compound;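 on i+1 (%) (15 nt), replicates #1-#3: i+1 is one-nucleotide extended DNA within post-catalytic complexes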
T2 construct: purified recombinant human Polθ-pol (comprising amino acid residues 1792–2590); made in house
T2 sequence (O75417 1792-2590): T1 sequence (O75417 1792-2590)
Procedure: (§1) EcoRI and KpnI endonucleases assay: 25 nM 5’-^32P radiolabeled primer-template DNA Sc15-EcoRI (5’-^32P LM3-EcoRI/LM4-EcoRI) or Sc19-KpnI (5’-^32P LM11-Kpn/LM12-Kpn) in reaction buffer (25 mM Tris-HCl pH 7.5, 10 mM MgCl2, 10% glycerol, 0.1 mg/mL BSA, 0,01% igepal, 1 mM DTT) were incubated in the presence or in the absence of 50 nM Polθ-pol, 100 μM ddCTP, and 10 μM inhibitors, as indicated, for 5 min at room temperature. Next, 0.08 U/μL EcoRI or KpnI together with 500 nM “trapping” DNA Sc14 (RP559/RP702) were added and incubated for further 0–40 min at 30 °C as indicated. 10 nM PolθΔcen and FL-Polθ and 25 nM Sc15-EcoRI and Sc19-Kpn were probed with 0.04 U/μL EcoRI or KpnI (both from New England Biolabs) using the same conditions. Reactions were stopped by addition of formamide loading buffer with 50 mM EDTA, resolved in denaturing 20% urea PAAG and analyzed using Typhoon PhosphorImager (GE Amersham). Quantification was done in ImageQuant TL software. All quantified experiments were performed in triplicates and plotted as mean with ± s.d using GraphPad Prism 9 software.

EcoRI = target: T3, EcoRI (Escherichia coli, UniProt P00642); test: EcoRI cleavage control in the absence of Polθ-pol; conditions: for cleavage %: EcoRI; for inhibition of EcoRI activity: absence of Polθ-pol; for % cleavage: compound 10 µM
T3 construct: purchased New England Biolabs
Procedure: as §1

KpnI = target: T4, KpnI (Klebsiella pneumoniae, UniProt P25237); test: KpnI cleavage control in the absence of Polθ-pol; conditions: for cleavage %: KpnI; for inhibition of KpnI activity: absence of Polθ-pol; for % cleavage: compound 10 µM
T4 construct: purchased New England Biolabs
T4 sequence (P25237 1-218): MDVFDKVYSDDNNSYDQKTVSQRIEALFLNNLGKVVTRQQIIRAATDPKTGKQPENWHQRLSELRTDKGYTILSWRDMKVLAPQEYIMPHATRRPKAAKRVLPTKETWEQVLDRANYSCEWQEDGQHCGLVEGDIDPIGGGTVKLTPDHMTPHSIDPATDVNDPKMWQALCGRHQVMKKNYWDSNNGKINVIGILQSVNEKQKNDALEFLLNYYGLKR
Procedure: as §1

T3 sequence (P00642 2-277 limits assumed): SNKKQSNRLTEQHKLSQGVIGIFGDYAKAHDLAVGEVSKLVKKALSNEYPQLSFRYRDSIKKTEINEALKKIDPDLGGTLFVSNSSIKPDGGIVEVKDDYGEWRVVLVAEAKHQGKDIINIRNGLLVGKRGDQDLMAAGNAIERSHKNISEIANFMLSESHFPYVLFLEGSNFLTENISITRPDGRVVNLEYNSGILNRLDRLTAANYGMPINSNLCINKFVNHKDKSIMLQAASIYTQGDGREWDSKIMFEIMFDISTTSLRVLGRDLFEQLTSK

CN(C(=O)Oc1ccc(C(F)(F)F)cc1C(F)(F)F)c1ccc(F)cc1 [MC160385]
inhibition of Polθ-pol MMEJ activity in vitro (Polθ-pol): substantial Polθ-pol MMEJ inhibition

CN1CCN(c2cc(C(F)(F)F)cc(C(F)(F)F)c2OC(=O)N(C)c2ccc(F)cc2)C1=O [RTx-152]
suppression of EcoRI cleavage (Polθ-pol:DNA/DNA complex; 10 μM inhibitor, ddCTP): strong suppression of endonuclease cleavage | time Polθ-pol is trapped on DNA/DNA (EcoRI cleavage suppressed) (Polθ-pol:DNA/DNA complex; 10 μM inhibitor, ddCTP): > 40 min | EcoRI cleavage %, ave (Polθ-pol:DNA/DNA complex; 2.5min): 2.1% | EcoRI cleavage %, replicates #1-#3 (Polθ-pol:DNA/DNA complex; 2.5min): 3.0% and 2.0% and 1.2% | EcoRI cleavage %, ave (Polθ-pol:DNA/DNA complex; 5min): 2.5% | EcoRI cleavage %, replicates #1-#3 (Polθ-pol:DNA/DNA complex; 5min): 3.0% (2×) and 1.4% | EcoRI cleavage %, ave (Polθ-pol:DNA/DNA complex; 10min): 4.6% | EcoRI cleavage %, replicates #1-#3 (Polθ-pol:DNA/DNA complex; 10min): 5.0% (2×) and 3.7% | EcoRI cleavage % (Polθ-pol:DNA/DNA complex; pol+ddC+152, 0 min): 0.0% | EcoRI cleavage % (Polθ-pol:DNA/DNA complex; pol+ddC+152, 5 min): 3.0% | cleavage normalized to 100%, i (Polθ-pol:DNA/DNA complex; pol+ddC+152, 5 min): 100.0% | cleavage normalized to 100%, i+1 (Polθ-pol:DNA/DNA complex; pol+ddC+152, 5 min): 100.0% | EcoRI cleavage % (Polθ-pol:DNA/DNA complex; pol+ddC+152, 10 min): 3.7% | cleavage normalized to 100%, i (Polθ-pol:DNA/DNA complex; pol+ddC+152, 10 min): 75.0% | cleavage normalized to 100%, i+1 (Polθ-pol:DNA/DNA complex; pol+ddC+152, 10 min): 110.0% | EcoRI cleavage % (Polθ-pol:DNA/DNA complex; pol+ddC+152, 20 min): 5.7% | cleavage normalized to 100%, i (Polθ-pol:DNA/DNA complex; pol+ddC+152, 20 min): 48.0% | cleavage normalized to 100%, i+1 (Polθ-pol:DNA/DNA complex; pol+ddC+152, 20 min): 119.0% | EcoRI cleavage % (Polθ-pol:DNA/DNA complex; pol+ddC+152, 40 min): 9.5% | cleavage normalized to 100%, i (Polθ-pol:DNA/DNA complex; pol+ddC+152, 40 min): 25.0% | cleavage normalized to 100%, i+1 (Polθ-pol:DNA/DNA complex; pol+ddC+152, 40 min): 124.0% | i (%) (14 nt), replicates #1-#3 (Polθ-pol:DNA/DNA complex; 2.5min): 25.8% and 27.6% and 28.2% | i (%), normalized to 100%, ave(%) (Polθ-pol:DNA/DNA complex; 2.5min): 100.0% | i+1 (%) (15 nt), replicates #1-#3 (Polθ-pol:DNA/DNA complex; 2.5min): 59.7% and 57.2% and 58.7% | i+1 (%) normalized to 100%, ave(%) (Polθ-pol:DNA/DNA complex; 2.5min): 100.0% | i (%) (14 nt), replicates #1-#3 (Polθ-pol:DNA/DNA complex; 5min): 22.2% and 22.6% and 25.1% | i (%), normalized to 100%, ave(%) (Polθ-pol:DNA/DNA complex; 5min): 85.6% | i+1 (%) (15 nt), replicates #1-#3 (Polθ-pol:DNA/DNA complex; 5min): 63.6% and 59.1% and 62.1% | i+1 (%) normalized to 100%, ave(%) (Polθ-pol:DNA/DNA complex; 5min): 105.2% | i (%) (14 nt), replicates #1-#3 (Polθ-pol:DNA/DNA complex; 10min): 15.4% and 16.3% and 17.9% | i (%), normalized to 100%, ave(%) (Polθ-pol:DNA/DNA complex; 10min): 60.8% | i+1 (%) (15 nt), replicates #1-#3 (Polθ-pol:DNA/DNA complex; 10min): 68.8% and 63.1% and 66.7% | i+1 (%) normalized to 100%, ave(%) (Polθ-pol:DNA/DNA complex; 10min): 113.1% | cleavage % (EcoRI; 3 min): 27.4% | cleavage % (EcoRI; 6 min): 49.4% | inhibition of EcoRI activity (EcoRI): resistant to inhibition; also recorded: do not inhibit | % cleavage (EcoRI; cleavage 3 min): 27% | % cleavage (EcoRI; cleavage 6 min): 49% | cleavage % (KpnI; 3 min): 21.3% | cleavage % (KpnI; 6 min): 35.8% | inhibition of KpnI activity (KpnI): resistant to inhibition | % cleavage (KpnI; cleavage 3 min): 21% | % cleavage (KpnI; cleavage 6 min): 36%

CN(C(=O)Oc1c(N2CCN(CCO)C2=O)cc(C(F)(F)F)cc1C(F)(F)F)c1ccc(F)cc1 [RTx-161]
inhibition of Polθ-pol MMEJ activity in vitro (Polθ-pol): concentration dependent inhibition | time Polθ-pol is trapped on DNA/DNA (EcoRI cleavage suppressed) (Polθ-pol:DNA/DNA complex; 10 μM inhibitor, ddCTP): > 10 min | EcoRI cleavage %, ave (Polθ-pol:DNA/DNA complex; 2.5min): 4.0% | EcoRI cleavage %, replicates #1-#3 (Polθ-pol:DNA/DNA complex; 2.5min): 5.8% and 3.2% and 4.2% | EcoRI cleavage %, ave (Polθ-pol:DNA/DNA complex; 5min): 6.0% | EcoRI cleavage %, replicates #1-#3 (Polθ-pol:DNA/DNA complex; 5min): 8.0% and 4.6% and 4.9% | EcoRI cleavage %, replicates #1-#3 (Polθ-pol:DNA/DNA complex; 10min): 9.0% and 6.1% and 7.3% | i (%) (14 nt), replicates #1-#3 (Polθ-pol:DNA/DNA complex; 2.5min): 25.2% and 24.9% and 24.6% | i (%), normalized to 100%, ave(%) (Polθ-pol:DNA/DNA complex; 2.5min): 100.0% | i+1 (%) (15 nt), replicates #1-#3 (Polθ-pol:DNA/DNA complex; 2.5min): 53.9% and 59.3% and 59.1% | i+1 (%) normalized to 100%, ave(%) (Polθ-pol:DNA/DNA complex; 2.5min): 100.0% | i (%) (14 nt), replicates #1-#3 (Polθ-pol:DNA/DNA complex; 5min): 21.5% and 21.2% and 20.7% | i (%), normalized to 100%, ave(%) (Polθ-pol:DNA/DNA complex; 5min): 85.0% | i+1 (%) (15 nt), replicates #1-#3 (Polθ-pol:DNA/DNA complex; 5min): 55.1% and 61.3% and 62.4% | i+1 (%) normalized to 100%, ave(%) (Polθ-pol:DNA/DNA complex; 5min): 103.8% | i (%) (14 nt), replicates #1-#3 (Polθ-pol:DNA/DNA complex; 10min): 11.4% and 15.0% and 15.5% | i (%), normalized to 100%, ave(%) (Polθ-pol:DNA/DNA complex; 10min): 56.1% | i+1 (%) (15 nt), replicates #1-#3 (Polθ-pol:DNA/DNA complex; 10min): 66.5% and 64.8% and 64.7% | i+1 (%) normalized to 100%, ave(%) (Polθ-pol:DNA/DNA complex; 10min): 113.8% | cleavage % (EcoRI; 3 min): 26.2% | cleavage % (EcoRI; 6 min): 44.3% | inhibition of EcoRI activity (EcoRI): resistant to inhibition; also recorded: do not inhibit | % cleavage (EcoRI; cleavage 3 min): 26% | % cleavage (EcoRI; cleavage 6 min): 44% | cleavage % (KpnI; 3 min): 20.2% | cleavage % (KpnI; 6 min): 33.3% | inhibition of KpnI activity (KpnI): resistant to inhibition | % cleavage (KpnI; cleavage 3 min): 20% | % cleavage (KpnI; cleavage 6 min): 33%
